The results in this text go back to patent US7432392B2, “Ester derivatives and medical use thereof” (Japan Tobacco Inc., priority 2003, dated 2008).

The subject of data set [1] is apolipoprotein B secretion from HepG2 cells. In words: Inhibition of apolipoprotein B secretion from HepG2 cells. The format is cell-based. The note with it: Homo sapiens, about 20 hours incubation, apo B in supernatant by ELISA. On the procedure:
HepG2 cells were suspended in Dulbecco's Modified Eagle's Medium (DMEM) (containing 10% fetal bovine serum, 100 units/mL penicillin and 100 μg/mL streptomycin), and placed on a 96-well plate (4×10^4 cells/well), then incubated for 24 hours. After removal of the medium, DMEM was replaced by a medium containing a sample dissolved in DMSO or a medium containing DMSO (concentration of DMSO: 0.5%) and incubation was further performed for about 20 hours, after which the supernatant was recovered, and concentration of apo B in the supernatant was assayed by Enzyme-Linked Immunosorbent Assay (ELISA)
ELISA was carried out as follows. Anti-human apo B monoclonal antibody (0.5 μg/well) diluted with a 50 mM sodium carbonate/sodium bicarbonate buffer was placed in a 96-well plate for ELISA, and allowed to stand at room temperature for 15 hours. After washing the plate, a blocking solution (250 μL/well) was placed in the well, and allowed to stand at room temperature for 1.5 hours. After washing the plate, a standard and a sample (100 μL/well) were placed in the well and allowed to stand at room temperature for 1.5 hours. The standard was prepared by adjusting the concentration of the purified human apo B with the DMEM to 0 to 250 ng/mL. After washing the plate, an anti-human apo B polyclonal antibody labeled with a horse radish peroxidase which was diluted in 1:1000 with DEME (100 μL/well) was added, and allowed to stand at room temperature for 1.5 hours. After washing the plate, 2,2-azinobis(3-ethylbenzothiazoline-6-sulfonic acid) solution (100 μL/well) was placed in the well, and allowed to stand at room temperature for 0.5 hour. The reaction was stopped by addition of 2% oxalic acid (100 μL/well), and absorbency at 405 nm was measured. Concentration of apo B in the sample was calculated on the basis of a standard curve of the standard. Inhibition rate (%) was calculated from the assayed values in accordance with the following equation. Inhibition rate (%)=100×(1 minus (concentration of apo B in sample group/concentration of apo B in DMSO group).
Based on the above equation, 50% inhibition concentration (IC50) was determined.

Data set [2] has as its target T1, Microsomal triglyceride transfer protein (MTP) from bovine liver (Bos taurus, UniProt P55156).
T1 construct: the purified MTP was used for the test; from tissue; host or cells: bovine liver
T1 sequence (P55156 12-887): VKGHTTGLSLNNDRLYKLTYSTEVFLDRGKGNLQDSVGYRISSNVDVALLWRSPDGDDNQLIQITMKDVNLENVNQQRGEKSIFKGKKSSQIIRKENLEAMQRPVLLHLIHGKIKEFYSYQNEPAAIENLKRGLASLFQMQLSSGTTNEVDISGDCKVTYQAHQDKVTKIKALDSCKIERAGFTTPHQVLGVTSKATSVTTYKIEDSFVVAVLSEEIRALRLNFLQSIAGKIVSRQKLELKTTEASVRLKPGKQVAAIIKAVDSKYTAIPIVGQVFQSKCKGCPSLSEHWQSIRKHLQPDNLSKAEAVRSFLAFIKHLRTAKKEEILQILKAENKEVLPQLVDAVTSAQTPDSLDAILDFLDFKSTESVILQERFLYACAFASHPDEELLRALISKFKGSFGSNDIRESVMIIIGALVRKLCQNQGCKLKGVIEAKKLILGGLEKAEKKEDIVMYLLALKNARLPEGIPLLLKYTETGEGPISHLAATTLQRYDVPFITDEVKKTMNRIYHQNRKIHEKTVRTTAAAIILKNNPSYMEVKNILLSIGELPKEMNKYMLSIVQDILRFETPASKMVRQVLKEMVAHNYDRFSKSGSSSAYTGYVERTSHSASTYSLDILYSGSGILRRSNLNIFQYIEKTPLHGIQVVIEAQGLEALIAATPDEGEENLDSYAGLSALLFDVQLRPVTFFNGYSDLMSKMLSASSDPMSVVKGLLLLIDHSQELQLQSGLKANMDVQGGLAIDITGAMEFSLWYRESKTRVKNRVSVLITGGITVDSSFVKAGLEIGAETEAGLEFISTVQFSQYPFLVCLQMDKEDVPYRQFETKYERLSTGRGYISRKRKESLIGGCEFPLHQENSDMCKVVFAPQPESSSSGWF
T1 sequence (P05307 21-510 partner): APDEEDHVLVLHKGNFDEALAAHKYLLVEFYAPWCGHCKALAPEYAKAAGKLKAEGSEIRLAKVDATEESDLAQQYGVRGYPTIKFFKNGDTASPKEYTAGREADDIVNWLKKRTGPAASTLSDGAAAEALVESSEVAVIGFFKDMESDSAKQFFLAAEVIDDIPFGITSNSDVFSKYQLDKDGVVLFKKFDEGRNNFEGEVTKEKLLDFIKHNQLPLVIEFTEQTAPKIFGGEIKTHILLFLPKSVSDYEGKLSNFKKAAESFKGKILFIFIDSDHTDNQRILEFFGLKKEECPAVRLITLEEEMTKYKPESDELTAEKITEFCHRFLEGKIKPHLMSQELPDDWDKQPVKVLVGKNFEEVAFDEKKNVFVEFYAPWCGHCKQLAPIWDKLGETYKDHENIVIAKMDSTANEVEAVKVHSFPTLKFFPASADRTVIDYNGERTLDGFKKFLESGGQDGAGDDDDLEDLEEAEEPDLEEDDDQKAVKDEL
Kind of data set: Inhibition of interliposomal triglyceride (TG) transfer activity by MTP. Format: biochemical. The note with it: MTP-mediated TG transfer between donor and acceptor liposomes, 37° C., one hour. On the procedure: Microsomal triglyceride transfer protein (MTP) from bovine liver was partially purified in such a way described below. A buffer (50 mM Tris, 250 mM sucrose, 1 mM EDTA, 0.02% NaN3 (pH 7.4)) for making a homogenate preparation was added to bovine liver, and the mixture was homogenated under ice-cooling, then centrifuged at 10,000×g (4° C., 30 minutes) The supernatant was adjusted to pH 5.1 with hydrochloric acid, and stirred for 30 minutes. The solution was further centrifuged at 10,000×g (4° C., 30 minutes), and 1 mM Tris buffer was added to the precipitated residue, and the mixture was adjusted to pH 8.6 with sodium hydroxide. After addition of 2.7 M ammonium sulfate solution, the mixture was stirred for 30 minutes, then centrifuged at 10,000×g (4° C., 40 minutes). The resulting supernatant was served as a crude extraction fraction of MTP and stored at −80° C. under freezing. In its practical use, the crude extraction fraction of MTP was purified by column chromatography on diethylaminoethyl (DEAE) Sepharose using FPLC (Fast Performance Liquid Chromatography) system, and the purified MTP was used for the test.
Small unilamellar-vesicle (SUV) liposome (donor, 0.25 mol % triolein, 5 mol % cardiolipin) labeled with ^14C-triolein and non-labeled SUV liposome (acceptor, 0.25 mol % triolein) were prepared. A fixed amount of donor and acceptor, and MTP were mixed with a sample dissolved in DMSO or with DMSO. The mixture was incubated in a 15 mM Tris hydrochloride buffer (pH 7.4) containing 40 mM sodium chloride, 1 mM EDTA (ethylenediaminetetraacetic acid), 0.02% NaN3 and 0.5% bovine serum albumin at 37° C. for one hour. After completion of the incubation, a suspension of DEAE cellulose (50% v/v) in 15 mM Tris hydrochloride buffer (pH 7.4) was added to the above solution, and the mixture was centrifuged to separate the donor and the acceptor. The radioactivity in the acceptor was measured by liquid scintillation counter. The value obtained by subtracting the radioactivity in the blank from the amount of radioactivity in the acceptor of a DMSO group was determined as MTP-mediated TG transfer activity, and it was compared with the value obtained by subtracting the radioactivity in the blank from the radioactivity in a sample group. The blank was prepared by adding 15 mM Tris-HCl buffer (pH 7.4) in place of MTP. Inhibition rate (%) was calculated from the values obtained according to the following equation.
Inhibition rate (%)=100×(1 minus ((radioactivity of sample group minus radioactivity of blank group)/(radioactivity of DMSO group minus radioactivity of blank group))). 50% Inhibition rate (IC50) was determined on the basis of the above equation.

Regarding `CCOC(=O)C(COC(=O)Cc1ccc(NC(=O)c2ccccc2-c2ccc(C(F)(F)F)cc2)c(OC(=O)COC)c1)(C(=O)OCC)c1ccccc1` [Example 1-3], the IC50 was below 1000 nM in data set [1] and below 10 nM in data set [2].
The like results for `CCOC(=O)C(COC(=O)Cc1cccc(NC(=O)c2ccccc2-c2ccc(C(F)(F)F)cc2)c1OC(C)=O)(C(=O)OCC)c1ccccc1` [Example 1-4] were, in that order, below 10000 nM and 10 to 100 nM.
In data set [2], `CCOC(=O)C(CCC(=O)Oc1ccc(NC(=O)c2ccccc2-c2ccc(C(F)(F)F)cc2)c(C(=O)N(C)C)c1)(C(=O)OCC)c1ccccc1` [Example 3, 2-Ethoxycarbonyl-2-phenylpentanedioic acid 5-{3-dimethylcarbamoyl-4-[(4′-trifluoromethylbiphenyl-2-carbonyl)amino]phenyl}ester 1-ethyl ester] registered an IC50 below 10 nM.
With `CCOC(=O)C(COC(=O)Oc1ccc(NC(=O)c2cnc(N(C)C)nc2-c2ccc(C(F)(F)F)cc2)c(C(=O)N(C)C)c1)(C(=O)OCC)c1ccccc1` [Example 2-28], the IC50 in data set [2] was below 10 nM.
The compound `CCOC(=O)C(COC(=O)Cc1ccc(N(C)C(=O)c2ccccc2-c2ccc(C(F)(F)F)cc2)c(OC(C)=O)c1)(C(=O)OCC)c1ccccc1` [Example 1-8] gave an IC50 in data set [2] below 10 nM.
Still for that read-out and setting: in the case of `CCN(C)C(=O)C(CCC(=O)Oc1c(F)cc(NC(=O)c2ccccc2-c2ccc(C(F)(F)F)cc2)c(C(=O)N(C)C)c1F)(C(=O)N(C)CC)c1ccccc1` [Example 3-18] it was 10 to 100 nM; in that of `CCOC(=O)C(COC(=O)Oc1c(F)cc(NC(=O)c2ccc(OC)cc2-c2ccc(C(F)(F)F)cc2)c(C(=O)N(C)C)c1F)(C(=O)OCC)c1cccs1` [Example 2-37], 10 to 100 nM.
As for `CCNC(=O)C(COC(=O)Oc1ccc(NC(=O)c2ccccc2-c2ccc(C(F)(F)F)cc2)c(C(=O)N(C)C)c1)(C(=O)NCC)c1ccccc1` [Example 2-10], the IC50 in data set [2] is below 10 nM.
As for `CCOC(=O)C(COC(=O)Oc1ccc(NC(=O)c2ccc(C(F)(F)F)nc2-c2ccc(C(F)(F)F)cc2)c(C(=O)N(C)C)c1)(C(=O)OCC)c1ccccc1` [Example 2-16], in data set [2], the concentration for half-maximal inhibition (IC50) is below 10 nM.
Turning to `CCCC(=O)Oc1cc(CC(=O)OCC(C(=O)OCC)(C(=O)OCC)c2ccccc2)ccc1NC(=O)c1ccc(C)cc1-c1ccc(C(F)(F)F)cc1` [Example 1-7], in data set [2], the IC50 is below 10 nM.
The compound `CCOC(=O)C(CCC(=O)Oc1c(F)cc(NC(=O)c2ccccc2-c2ccc(C(F)(F)F)cc2)c(C(=O)N(C)C)c1F)(C(=O)OCC)c1ccccc1` [Example 3-9] came in with an IC50 in data set [2] below 10 nM.
Still for that read-out and setting: in the case of `CCNC(=O)C(COCC(=O)OCc1ccc(NC(=O)c2ccccc2-c2ccc(C(F)(F)F)cc2)c(C(=O)N(C)C)c1)(C(=O)NCC)c1ccccc1` [Example 3-24] it was below 10 nM; in that of `CCOC(=O)C(COC(=O)Cc1ccc(NC(=O)c2ccc(C)cc2-c2ccc(C(F)(F)F)cc2)c(OC(=O)CC)c1)(C(=O)OCC)c1ccccc1` [Example 1-6], below 10 nM; in that of `CCOC(=O)C(COC(=O)Oc1c(F)cc(NC(=O)c2c(C)cccc2-c2ccc(C(F)(F)F)cc2)c(C(=O)N(C)C)c1F)(C(=O)OCC)c1cccs1` [Example 2-39], below 10 nM.
Consider `CCOC(=O)C(COC(=O)Cc1ccc(NC(=O)c2ccccc2-c2ccc(C(F)(F)F)cc2)c(OC(=O)CC)c1)(C(=O)OCC)c1ccccc1` [Example 1-2], for which the concentration for half-maximal inhibition (IC50) was below 1000 nM in data set [1] and below 10 nM in data set [2].
The compound `CCOC(=O)C(COC(=O)Oc1ccc2c(c1)CCN2C(=O)c1ccccc1-c1ccc(C(F)(F)F)cc1)(C(=O)OCC)c1ccccc1` [Example 2-3] displayed an IC50 in data set [2] of 10 to 100 nM.
For `CCNC(=O)C(CCCCC(=O)Oc1c(F)cc(NC(=O)c2ccccc2-c2ccc(C(F)(F)F)cc2)c(C(=O)N(C)C)c1F)(C(=O)NCC)c1cccs1` [Example 3-15], in data set [2], the IC50 fell in the range of 100 to 1000 nM.
Regarding `CCOC(=O)C(COC(=O)COc1ccc(NC(=O)c2ccccc2-c2ccc(C(F)(F)F)cc2)c(C(=O)N(C)C)c1)(C(=O)OCC)c1ccccc1` [Example 3-2, 2-(2-{3-Dimethylcarbamoyl-4-[(4′-trifluoromethylbiphenyl-2-carbonyl)amino]phenoxy}acetoxymethyl)-2-phenylmalonic acid diethyl ester], the melting point was in the range of 132 to 138 °C. The concentration for half-maximal inhibition (IC50) in data set [2] was below 10 nM.
As for `CCOC(=O)C(COC(=O)Cc1ccc(NC(=O)c2ccc(C)cc2-c2ccc(C(F)(F)F)cc2)c(OC(C)=O)c1)(C(=O)OCC)c1ccccc1` [Example 1-5], the IC50 in data set [2] was below 10 nM.
Turning to `CCOC(=O)C(COC(=O)Oc1c(F)cc(NC(=O)c2ccc(C(F)(F)F)cc2-c2ccc(C(F)(F)F)cc2)c(C(=O)N(C)C)c1F)(C(=O)OCC)c1cccs1` [Example 2-32], in data set [2], the half-inhibitory concentration (IC50) was below 10 nM.

In general, IC50 refers to the midpoint of a concentration-inhibition curve. As a reminder, the melting point is the temperature, or range, at which the solid turns liquid.
